Results published in patent US20100286035A1, “NEUROMEDIN U DERIVATIVE” (Takeda Pharmaceutical Company Limited, priority 2007, published 2010).

Tests used:
Human FM3 = target: T1, Human FM3 (Homo sapiens, UniProt Q9HB89); experiment: Receptor binding study: 125I-NMU 8 labeled ligand binding inhibition to the FM3 membrane fraction; conditions: FM3/CHO membrane fraction, 25° C. for 60 min, read-out: FM3 RBA IC50
T1 construct: expressed in transfected cells; host or cells: CHO (dhfr-) cells; membrane fraction
T1 sequence (Q9HB89 1-426 R203Q): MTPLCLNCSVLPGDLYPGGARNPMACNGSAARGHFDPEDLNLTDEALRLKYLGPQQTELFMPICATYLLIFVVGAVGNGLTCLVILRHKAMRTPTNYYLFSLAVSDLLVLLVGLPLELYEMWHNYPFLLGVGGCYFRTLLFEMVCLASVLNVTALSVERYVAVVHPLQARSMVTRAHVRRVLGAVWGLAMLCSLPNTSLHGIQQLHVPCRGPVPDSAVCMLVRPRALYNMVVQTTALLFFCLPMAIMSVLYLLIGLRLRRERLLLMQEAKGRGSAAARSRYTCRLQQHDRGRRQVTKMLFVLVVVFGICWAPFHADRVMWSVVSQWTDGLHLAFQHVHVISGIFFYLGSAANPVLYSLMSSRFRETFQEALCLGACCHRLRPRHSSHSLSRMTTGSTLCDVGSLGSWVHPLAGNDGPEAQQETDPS
Experimental: Human FM3 represented CHO cells (dhfr-) and human TRI represented CHO cells (dhfr-) were cultured under 5% carbon dioxide conditions at 37° C. using a 10% dialyzed FBS-containing MEMα (Invitrogen) culture. The adhered cells were peeled with 10 ml of 0.1 mM EDTA containing DPB-S (Invitrogen) and cells were recovered by centrifugal separation at 4° C. at 1000 rpm for 10 min. 15 ml of homogenizer buffer (10 mM NaHCO3 (pH 7.4), 5 mM EDTA, Protein Inhibitors=0.5 mM PMSF, 10 μg/ml Pepstatin A, 20 μg/ml Leupeptin, 4 μg/ml E-64) were added to the cell pellets obtained. […]
Next, the reactivity between the radiation labeled ligand ^125I-NMU 8 and each receptor represented cell membrane fraction was analyzed by scatchard analysis using a reactive buffer (50 mM HEPES (pH 6.8), 1 mM EDTA, 0.1% BSA, Protein Inhibitors). […]
Namely, dilution strings of NMU derivatives and PEG conjugates were provided and diluted membrane fraction solutions (200 μl) were added. […] According to the aforementioned operations, the amount of binding of the labeled ligand remaining in the filter was measured and the IC50 values were calculated using graph pad PRISM (FIG. 4A (FM3 receptor binding), FIG. 4B (TGR1 receptor binding), FIG. 4C (FM3 receptor binding), FIG. 4D (TGR1 receptor binding) Table 9).

male C57BL/6J mice = experiment: Test Example 2: antifeedant activity of NMU-23 and NMU-8 in mice; format: in vivo; conditions: peripheral administration
Experimental: 7 weeks old male C57BL/6J mice (mean bodyweight: 25 g) delivered from the Japan Charles River Company were raised for 5 to 10 days after delivery under a feeding environment regulated for temperature and humidity with lighting time (25° C., 12 hours of lighted period and 12 hours of dark period, light was lit at 8:00). Four animals were placed in one cage. After handling the mice for 5 to 8 days, the animals were housed singly in each cage where a floor mesh was spread and acclimated by intraperitoneal injection for 3 days prior to the administration of a peptide. The animals acclimated were fasted for 16 hours from 18:00 prior to the administration of the peptide. However, the animals had free access to drinking water. […] After the injection of the peptide solution, MF feed which had been weighed (Oriental Yeast Industry) was given freely to the mice. Further, the residual amount of the feed was measured after 3, 6 and 24 hours. The food intakes at 3, 6 and 24 hours were calculated by subtracting the residual amount of the feed after 3, 6 and 24 hours from the amount of the feed that was originally given.
[In FIG. 2, * and ** tested by T-tests indicated to be lower at the levels of significance of 0.05 and 0.01 (P<0.05 and P<0.01]

IC50 (Human FM3): 0.19 nM
Compound: CC(C)C[C@H](NC(=O)[C@H](Cc1ccccc1)NC(=O)[C@@H](N)Cc1ccc(O)cc1)C(=O)N[C@@H](Cc1ccccc1)C(=O)N[C@@H](CCCNC(=N)N)C(=O)N1CCC[C@H]1C(=O)N[C@@H](CCCNC(=N)N)C(=O)N[C@@H](CC(N)=O)C(N)=O [NMU-8, Try-Phe-Leu-Phe-Arg-Pro-Arg-Asn-NH2]
antifeedant activity via peripheral administration (male C57BL/6J mice): did not express an antifeedant activity
